# Results as given in patent publication US20200024278A1, “COMPOSITION COMPRISING ANTIBIOTIC COMPOUND AND AN HETEROCYCLIC COMPOUND AND THEIR USE IN PREVENTING OR TREATING BACTERIAL INFECTIONS” (MUTABILIS, priority 2016, published 2020).
# Legend:
# Assay in all cases: MIC, broth microdilution (CLSI), substance alone or ATB combined with compound at 4 or 8 μg/mL
# [1] = tested on: SPN 49619; format: cell-based, S. pneumoniae; details: SPN 49619; for MIC ATB combined with compound: compound @8 μg/ml
# In short: (§1)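 Per CLSI-M7-A7, MICs are determined in cation-adjusted Mueller-Hinton broth with a final inoculum of 5·10^5 CFU/mL. Plates incubate 16-20 h at 35° C in air and are read by eye. Fosfomycin assays carry 25 μg/ml glucose-6-phosphate.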
# [2] = tested on: ECO UFR39; format: cell-based, E. coli; details: ECO UFR39; for MIC ATB combined with compound: compound @8 μg/ml
# In short: as §1
# [3] = tested on: ECO 190317; format: cell-based, E. coli; details: ECO 190317; for MIC ATB combined with compound: compound @8 μg/ml
# In short: as §1
# [4] = tested on: PAE UFR90; format: cell-based, P. aeruginosa; details: PAE UFR90; for MIC ATB combined with compound: compound @8 μg/ml
# In short: as §1
# [5] = tested on: PAE 105250; format: cell-based, P. aeruginosa; details: PAE 105250; for MIC ATB combined with compound: compound @8 μg/ml
# In short: as §1
# [6] = tested on: PAE UFR48; format: cell-based, P. aeruginosa; details: PAE UFR48; for MIC ATB combined with compound: compound @8 μg/ml
# In short: as §1
# [7] = tested on: SAU 29213; format: cell-based, S. aureus; details: for MIC ATB combined with compound: compound @8 μg/ml, SAU 29213
# In short: as §1
# [8] = tested on: ECL P99; format: cell-based, E. cloacae; details: ECL P99; for MIC ATB combined with compound: compound @8 μg/ml
# In short: as §1
# [9] = tested on: ABA UFR160; format: cell-based, A. baumannii; details: substance alone
# In short: as §1
# [10] = tested on: ABA UFR151; format: cell-based, A. baumannii; details: substance alone
# In short: as §1
# [11] = tested on: KPN BAA-1898; format: cell-based, K. pneumoniae; details: KPN BAA-1898; for MIC ATB combined with compound: compound @8 μg/ml
# In short: as §1
# [12] = tested on: KPN UFR42; format: cell-based, K. pneumoniae; details: KPN UFR42; for MIC ATB combined with compound: compound @8 μg/ml
# In short: as §1
# [13] = tested on: KPN 6299; format: cell-based, K. pneumoniae; details: compound @8 μg/ml
# In short: as §1
structure (smiles),measurement,setting,value
"O=C(O)C(F)(F)F.O=C1N2C[C@H](c3scnc3[C@H]2c2ncc[nH]2)N1OS(=O)(=O)[O-].[Na+] (relative stereo) [Example 6, sodium and 2,2,2-trifluoroacetate [trans-7-(1H-imidazol-3-ium--2-yl)-9-oxo-3-thia-5,8,10-triaza-tricyclo[6.2.1.0^2,6]undeca-2(6),4-dien-10-yl]sulfate]",MIC ATB combined with compound,[1]; ATB ATM,<0.031 µg/mL
same,MIC ATB combined with compound,[1]; ATB FEP,<0.031 µg/mL
same,MIC ATB combined with compound,[1]; ATB FOS,<0.125 µg/mL
same,MIC ATB combined with compound,[1]; ATB MEM,<0.031 µg/mL
same,MIC ATB combined with compound,[1]; ATB PIP,<0.031 µg/mL
same,MIC,[1]; substance alone,16 µg/mL
same,MIC ATB combined with compound,[2]; ATB ATM,<0.031 µg/mL
same,MIC ATB combined with compound,[2]; ATB FEP,<0.031 µg/mL
same,MIC ATB combined with compound,[2]; ATB FOS,<0.125 µg/mL
same,MIC ATB combined with compound,[2]; ATB MEM,<0.031 µg/mL
same,MIC ATB combined with compound,[2]; ATB PIP,<0.031 µg/mL
same,MIC,[2]; substance alone,2 µg/mL
same,MIC ATB combined with compound,[3]; ATB ATM,<0.031 µg/mL
same,MIC ATB combined with compound,[3]; ATB FEP,<0.031 µg/mL
same,MIC ATB combined with compound,[3]; ATB FOS,<0.125 µg/mL
same,MIC ATB combined with compound,[3]; ATB MEM,<0.031 µg/mL
same,MIC ATB combined with compound,[3]; ATB PIP,<0.031 µg/mL
same,MIC,[3]; substance alone,1 µg/mL
same,MIC ATB combined with compound,[4]; ATB ATM,8 µg/mL
same,MIC ATB combined with compound,[4]; ATB FEP,4 µg/mL
same,MIC ATB combined with compound,[4]; ATB FOS,8 µg/mL
same,MIC ATB combined with compound,[4]; ATB MEM,1 µg/mL
same,MIC ATB combined with compound,[4]; ATB PIP,>32 µg/mL
same,MIC,[4]; substance alone,>32 µg/mL
same,MIC ATB combined with compound,[5]; ATB ATM,4 µg/mL
same,MIC ATB combined with compound,[5]; ATB FEP,8 µg/mL
same,MIC ATB combined with compound,[5]; ATB FOS,128 µg/mL
same,MIC ATB combined with compound,[5]; ATB MEM,2 µg/mL
same,MIC ATB combined with compound,[5]; ATB PIP,>32 µg/mL
same,MIC,[5]; substance alone,>32 µg/mL
same,MIC ATB combined with compound,[6]; ATB ATM,8 µg/mL
same,MIC ATB combined with compound,[6]; ATB FEP,32 µg/mL
same,MIC ATB combined with compound,[6]; ATB FOS,32 µg/mL
same,MIC ATB combined with compound,[6]; ATB MEM,4 µg/mL
same,MIC ATB combined with compound,[6]; ATB PIP,>32 µg/mL
same,MIC,[6]; substance alone,>32 µg/mL
same,MIC ATB combined with compound,[7]; ATB ATM,>32 µg/mL
same,MIC ATB combined with compound,[7]; ATB FEP,<=0.031 μg/mL
same,MIC ATB combined with compound,[7]; ATB FOS,<=0.125 μg/mL
same,MIC ATB combined with compound,[7]; ATB MEM,<=0.031 μg/mL
same,MIC ATB combined with compound,[7]; ATB PIP,0.063 µg/mL
same,MIC,"[7]; substance alone, SAU 29213 (MSSA 29213)",>32 µg/mL
same,MIC ATB combined with compound,[8]; ATB ATM,<0.031 µg/mL
same,MIC ATB combined with compound,[8]; ATB FEP,<0.031 µg/mL
same,MIC ATB combined with compound,[8]; ATB FOS,<0.125 µg/mL
same,MIC ATB combined with compound,[8]; ATB MEM,<0.031 µg/mL
same,MIC ATB combined with compound,[8]; ATB PIP,<0.031 µg/mL
same,MIC,[8]; substance alone,4 µg/mL
same,MIC,[9],16 µg/mL
same,MIC,[10],32 µg/mL
same,MIC ATB combined with compound,[11]; ATB ATM,<0.031 µg/mL
same,MIC ATB combined with compound,[11]; ATB FEP,<0.031 µg/mL
same,MIC ATB combined with compound,[11]; ATB FOS,<=0.125 μg/mL
same,MIC ATB combined with compound,[11]; ATB MEM,<0.031 µg/mL
same,MIC ATB combined with compound,[11]; ATB PIP,<0.031 µg/mL
same,MIC,[11]; substance alone,4 µg/mL
same,MIC ATB combined with compound,[12]; ATB ATM,<0.031 µg/mL
same,MIC ATB combined with compound,[12]; ATB FEP,<0.031 µg/mL
same,MIC ATB combined with compound,[12]; ATB FOS,<0.125 µg/mL
same,MIC ATB combined with compound,[12]; ATB MEM,<0.031 µg/mL
same,MIC ATB combined with compound,[12]; ATB PIP,<=0.031 μg/mL
same,MIC,[12]; substance alone,4 µg/mL
same,MIC ATB combined with compound,[13]; ATB ATM,<0.031 µg/mL
same,MIC ATB combined with compound,[13]; ATB FEP,<0.031 µg/mL
same,MIC ATB combined with compound,[13]; ATB FOS,0.25 µg/mL
same,MIC ATB combined with compound,[13]; ATB MEM,<0.031 µg/mL
same,MIC ATB combined with compound,[13]; ATB PIP,<0.031 µg/mL
